The record followed here is patent publication US20210127673A1, “HERBICIDES” (SYNGENTA PARTICIPATIONS AG, priority 2016, published 2021).

What all share (type): in vivo
Common to all, as to settings: evaluated after 13 days

For assay [1], the system named is Triticum aestivium (TRZAW). Briefly: Pre-emergence herbicidal activity, Triticum aestivium. Details: key: 5=total damage to plant; 0=no damage to plant. Here is the method:
(§1) Seeds of a variety of test species were sown in standard soil in pots: Triticum aestivium (TRZAW), Avena fatua (AVEFA), Alopecurus myosuroides (ALOMY), Echinochloa crus-galli (ECHCG), Lolium perenne (LOLPE), Zea Mays (ZEAMX), Abutilon theophrasti (ABUTH), Amaranthus retroflexus (AMARE) and Setaria faberi (SETFA). After cultivation for one day (pre-emergence) under controlled conditions in a glasshouse (at 24/16° C., day/night; 14 hours light; 65% humidity), the plants were sprayed with an aqueous spray solution derived from the formulation of the technical active ingredient in acetone/water (50:50) solution containing 0.5% Tween 20 (polyoxyethelyene sorbitan monolaurate, CAS RN 9005-64-5). The test plants were then grown in a glasshouse under controlled conditions (at 24/16°, day/night; 14 hours light; 65% humidity) and watered twice daily. After 13 days, the test was evaluated (5=total damage to plant; 0=no damage to plant).

The subject of assay [2] is Avena fatua (AVEFA). Briefly: Pre-emergence herbicidal activity, Avena fatua. Details: key: 5=total damage to plant; 0=no damage to plant. Here is the method: as §1
The subject of assay [3] is Alopecurus myosuroides (ALOMY). Kind of assay: Pre-emergence herbicidal activity, Alopecurus myosuroides. The arrangement: key: 5=total damage to plant; 0=no damage to plant. How it is done:
as §1

Assay [4] relates to Echinochloa crus-galli (ECHCG). Kind of assay: Pre-emergence herbicidal activity, Echinochloa crus-galli. How it is done:
as §1

In assay [5] the test system is Lolium perenne (LOLPE). Kind of assay: Pre-emergence herbicidal activity, Lolium perenne. How it is done:
as §1

Assay [6] has as its system Setaria faberi (SETFA). Kind of assay: Pre-emergence herbicidal activity, Setaria faberi. The arrangement: key: 5=total damage to plant; 0=no damage to plant. Here is the method: as §1
Assay [7] relates to Triticum aestivium (TRZAW). Kind of assay: Post-emergence herbicidal activity, Triticum aestivium. The arrangement: key: 5=total damage to plant; 0=no damage to plant. How it is done: (§2) Seeds of a variety of test species were sown in standard soil in pots: Triticum aestivium (TRZAW), Avena fatua (AVEFA), Alopecurus myosuroides (ALOMY), Echinochloa crus-galli (ECHCG), Lolium perenne (LOLPE), Zea Mays (ZEAMX), Abutilon theophrasti (ABUTH), Amaranthus retroflexus (AMARE) and Setaria faberi (SETFA). After 8 days cultivation (post-emergence) under controlled conditions in a glasshouse (at 24/16° C., day/night; 14 hours light; 65% humidity), the plants were sprayed with an aqueous spray solution derived from the formulation of the technical active ingredient in acetone/water (50:50) solution containing 0.5% Tween 20 (polyoxyethelyene sorbitan monolaurate, CAS RN 9005-64-5). The test plants were then grown in a glasshouse under controlled conditions (at 24/16° C., day/night; 14 hours light; 65% humidity) and watered twice daily. After 13 days, the test was evaluated (5=total damage to plant; 0=no damage to plant).

The subject of assay [8] is Avena fatua (AVEFA). Kind of assay: Post-emergence herbicidal activity, Avena fatua. Here is the method: as §2
Assay [9] concerns Alopecurus myosuroides (ALOMY). Kind of assay: Post-emergence herbicidal activity, Alopecurus myosuroides. The arrangement: key: 5=total damage to plant; 0=no damage to plant. How it is done:
as §2

For assay [10], the system named is Echinochloa crus-galli (ECHCG). Kind of assay: Post-emergence herbicidal activity, Echinochloa crus-galli. How it is done:
as §2

The subject of assay [11] is Lolium perenne (LOLPE). Kind of assay: Post-emergence herbicidal activity, Lolium perenne. Details: key: 5=total damage to plant; 0=no damage to plant. How it is done:
as §2

In assay [12] the test system is Setaria faberi (SETFA). Kind of assay: Post-emergence herbicidal activity, Setaria faberi. Details: key: 5=total damage to plant; 0=no damage to plant. Here is the method: as §2

SMILES strings stand for the structures.

With `Cc1cc(CNC(=O)Nc2ccc(-c3cncc(F)c3)nc2C(F)(F)F)c(C(F)(F)F)o1` [Compound B79], in assay [1] (1000 g/ha), the “Control of TRAZW after pre-emergence application (score 0-5)” value is 0. The “Control of AVEFA after pre-emergence application (score 0-5)” value in [2] (1000 g/ha) was found to be 0. Moreover, the “Control of ALOMY after pre-emergence application (score 0-5)” value in [3] (1000 g/ha) was 0. Further, the “Control of ECHCG after pre-emergence application (score 0-5)” value in assay [4] (1000 g/ha) was determined as 2. The “Control of LOLPE after pre-emergence application (score 0-5)” value in assay [5] (1000 g/ha) turned out to be 1. Besides, the “Control of SETFA after pre-emergence application (score 0-5)” value in assay [6] (1000 g/ha) is recorded as 1. In assay [7] (1000 g/ha), the “Control of TRAZW after post-emergence application (score 0-5)” value was 0. In addition, the “Control of AVEFA after post-emergence application (score 0-5)” value in assay [8] (1000 g/ha) worked out at 2. Also, the “Control of ALOMY after post-emergence application (score 0-5)” value in [9] (1000 g/ha) was 0. In addition, the “Control of ECHCG after post-emergence application (score 0-5)” value in assay [10] (1000 g/ha) is given as 1. Also, the “Control of LOLPE after post-emergence application (score 0-5)” value in assay [11] (1000 g/ha) turned out to be 1. Also, in assay [12] (1000 g/ha), the “Control of SETFA after post-emergence application (score 0-5)” value worked out at 2.

As for `O=C(Nc1ccc(-c2cncc(F)c2)nc1C(F)(F)F)N1CCCCC1` [Compound B51], in assay [1] (1000 g/ha), the “Control of TRAZW after pre-emergence application (score 0-5)” value came out at 0. In addition, the “Control of AVEFA after pre-emergence application (score 0-5)” value in assay [2] (1000 g/ha) came out at 1. In [3] (1000 g/ha), the “Control of ALOMY after pre-emergence application (score 0-5)” value is recorded as 0. In addition, the “Control of ECHCG after pre-emergence application (score 0-5)” value in assay [4] (1000 g/ha) was found to be 2. For the same compound, the “Control of LOLPE after pre-emergence application (score 0-5)” value in [5] (1000 g/ha) stood at 1. In assay [6] (1000 g/ha), the “Control of SETFA after pre-emergence application (score 0-5)” value worked out at 5. Besides, the “Control of TRAZW after post-emergence application (score 0-5)” value in assay [7] (1000 g/ha) was 0. Moreover, the “Control of AVEFA after post-emergence application (score 0-5)” value in assay [8] (1000 g/ha) is 3. Besides, the “Control of ALOMY after post-emergence application (score 0-5)” value in assay [9] (1000 g/ha) is on record as 0. The “Control of ECHCG after post-emergence application (score 0-5)” value in assay [10] (1000 g/ha) stood at 4. Moreover, the “Control of LOLPE after post-emergence application (score 0-5)” value in assay [11] (1000 g/ha) is listed as 3. The “Control of SETFA after post-emergence application (score 0-5)” value in assay [12] (1000 g/ha) is recorded as 5.

Take `CSCCCNC(=O)Nc1ccc(-c2cncc(F)c2)nc1C(F)(F)F` [Compound B98]: the “Control of TRAZW after pre-emergence application (score 0-5)” value in assay [1] (250 g/ha) came to 0. Moreover, the “Control of AVEFA after pre-emergence application (score 0-5)” value in assay [2] (250 g/ha) is on record as 1. Further, the “Control of ALOMY after pre-emergence application (score 0-5)” value in assay [3] (250 g/ha) turned out to be 0. The “Control of ECHCG after pre-emergence application (score 0-5)” value in assay [4] (250 g/ha) was 1. The “Control of LOLPE after pre-emergence application (score 0-5)” value in assay [5] (250 g/ha) worked out at 1. In addition, the “Control of SETFA after pre-emergence application (score 0-5)” value in assay [6] (250 g/ha) is recorded as 4. In assay [7] (250 g/ha), the “Control of TRAZW after post-emergence application (score 0-5)” value is recorded as 0. Further, the “Control of AVEFA after post-emergence application (score 0-5)” value in assay [8] (250 g/ha) turned out to be 3. For the same compound, the “Control of ALOMY after post-emergence application (score 0-5)” value in assay [9] (250 g/ha) stood at 0. In addition, the “Control of ECHCG after post-emergence application (score 0-5)” value in assay [10] (250 g/ha) came to 2. Further, in assay [11] (250 g/ha), the “Control of LOLPE after post-emergence application (score 0-5)” value is given as 0. The “Control of SETFA after post-emergence application (score 0-5)” value in assay [12] (250 g/ha) was determined as 5.

Turning to `C=CCN(C(=O)OC(C)(C)C)c1ccc(-c2cncnc2)nc1C(F)(F)F` [Compound B35], the “Control of TRAZW after pre-emergence application (score 0-5)” value in assay [1] (1000 g/ha) is given as 0. The “Control of AVEFA after pre-emergence application (score 0-5)” value in [2] (1000 g/ha) was 0. Further, the “Control of ALOMY after pre-emergence application (score 0-5)” value in assay [3] (1000 g/ha) is reported as 0. Further, the “Control of ECHCG after pre-emergence application (score 0-5)” value in assay [4] (1000 g/ha) is on record as 2. Moreover, the “Control of LOLPE after pre-emergence application (score 0-5)” value in assay [5] (1000 g/ha) is 1. In addition, in assay [6] (1000 g/ha), the “Control of SETFA after pre-emergence application (score 0-5)” value is reported as 4. For the same compound, the “Control of TRAZW after post-emergence application (score 0-5)” value in assay [7] (1000 g/ha) came to 1. In assay [8] (1000 g/ha), the “Control of AVEFA after post-emergence application (score 0-5)” value is 2. Further, the “Control of ALOMY after post-emergence application (score 0-5)” value in assay [9] (1000 g/ha) turned out to be 0. Further, the “Control of ECHCG after post-emergence application (score 0-5)” value in [10] (1000 g/ha) is given as 3. Besides, the “Control of LOLPE after post-emergence application (score 0-5)” value in [11] (1000 g/ha) stood at 2. The “Control of SETFA after post-emergence application (score 0-5)” value in assay [12] (1000 g/ha) was 5.
